Assay results from patent US20090143335A1, “MODIFIED ABSORPTION FORMULATION OF GABOXADOL” (H. LUNDBECK A/S, priority 2007, published 2009).

What was measured:
[1] = Pharmacokinetics of gaboxadol in rats after PO dosing, with or without 5-HTP pre-incubation; format: in vivo, Sprague-Dawley rats; conditions: rat; for Cmax: Cmax ± S.E.M.; for Tmax: Tmax ± S.E.M.
Procedure: (§1) The pharmacokinetics (PK) was evaluated in WinNonlin. Plasma concentrations curves of the animals dosed intravenously were fitted to a 2-compartment model whereas the data from animals dosed orally were analysed in a non-compartment model. Statistical analysis was done in Sigma Stat.
(§2) Gaboxadol was extracted from plasma and HBSS^+ samples by liquid extraction. 100 μl HBSS^+ (80 μl purified water were added to the 20 μl samples) or 100 μl plasma samples were mixed with 25 μl intern standard (d4-gaboxadol) and 25 μl purified water. Protein precipitation was carried out by addition of 400 μl cold acetonitrile. After centrifugation at 10,000 g in 15 minutes, 425 μl supernatant was transferred to glass tubes and evaporated to dryness under nitrogen at 45° C. The samples were re-solved in 80 μl methanol/acetonitrile (30:70), whirl mixed for 10 minutes and centrifuged in 3 minutes at 3000 rpm, before transferal to medium well plates and placed at 10° C. in the autosampler. Gaboxadol concentration in the extracted samples was subsequently quantified by hydrophilic interaction chromatography (HILIC-chromatography) followed by MS/MS detection. The LC system comprised of an Agilent 1100 series pump and degasser, a CTC Analytics interface transferred data to the computer and a Peltier Thermostat and HTC Pal autosampler handled the samples. An Asahipak amino column, (NH2P-50, 150×2 mm) from Phenomenex was used for the chromatographic separation with a mobile phase of 20.0 mM ammoniumacetat pH=4:acetonitrile (30:70) and a flow rate of 0.2 ml/min. 20 μL samples were injected onto the column, which was kept at room temperature. The total runtime was 10 minutes with the first 5 minutes of elution let to waste. The elution time of gaboxadol on the column was approximately 8 minutes. The MS/MS system used consisted of a Sciex API 4000 MS/MS detector with a Turbo Ion Spray and Turbo V source (Applied Biosystems). The detection was performed in negative ionization mode where gaboxadol (precursor 139.1 Da, product 110.1 Da) and d4-gaboxadol (precursor 143.0, product 112.2 Da) were measured by multiple-reaction-monitoring (MRM). The signals were linear between 0.5 and 2500.0 ng/ml and the limit of quantification by this procedure was 0.5 ng/ml. The software was from Analyst™ (Applied Biosystem, version 4.0).
0.05 or 0.5 mg gaboxadol as well as 0.0 or 20.0 mg 5-HTP was dissolved in purified water pr ml. at room temperature and placed on ice in ultrasound for 10 min. The formulations were adjusted to pH 4-5 and with NaOH/HCl and made isotonic by addition of mannitol. pH of all solutions was adjusted to pH above 4.0 and below 5.0, the osmolality was adjusted with mannitol to 280 mmol/kg.
(§3) Male Sprague-Dawley rats (Charles River Laboratories, Wilmington, Mass., USA) of 220-240 gram were housed and acclimated for 7 days before entering the experiments. The rats were maintained on standard food and water until 16-20 hours prior to dosing when food was retrieved to insure complete gastric emptying before experiments were conducted. Water was available to the animals until beginning of experiment and again 2 hours after. Each animal was randomly assigned to receive either one of the intravenous or oral formulations.
6 parallel groups of rats (n=6) were given isotonic solutions of 0.5 or 5.0 mg/kg of gaboxadol together with saline or 200.0 mg/kg 5-HTP, by oral gavage (10.0 ml/kg). The suspensions of 5-HTP were given as a pre-incubation 30 min. prior to the gaboxadol solutions.
(§4) Blood samples of 0.2 ml were taken from the tail vein by individual vein puncture and collected into plasma collection tubes containing 20 IE heparin. Samples were collected at 5, 15, 30, 45, 60 minutes and after 2, 3, 4, 6, 8 hours after gaboxadol administration. The plasma was harvested immediately by centrifugation for 10 min. at 3.600 g and stored at −80° C. until further analysis.

[2] = Pharmacokinetics of gaboxadol in rats after IV dosing, with or without 5-HTP pre-incubation; format: in vivo, Sprague-Dawley rats; conditions: rat; for Ke ± S.E.M.: IV gaboxadol 2.5 mg/kg
Procedure: as §1, §2, §3, §4
0.25 mg gaboxadol as well as 0.0 or 10.0 mg 5-HTP was dissolved in purified water pr ml. at room temperature and placed on ice in ultrasound for 10 min. The solutions of gaboxadol used for intravenous injection was filtered through a 0.45 μm filter.
Animals were administered with 100.0 mg/kg 5-HTP or saline by oral gavage 30 min. prior to intravenous injection of 2.5 mg/kg gaboxadol into the tail vein […].

[3] = male, Sprague-Dawley, in vivo, po
[4] = male, Sprague-Dawley, in vivo, po, 0.5 mg/kg
[5] = male, Sprague-Dawley, in vivo, po, 5 mg/kg
[6] = male, Sprague-Dawley, in vivo, iv, 2.5 mg/kg

Oc1noc2c1CCNC2 [gaboxadol, 4,5,6,7-tetrahydroisoxazolo [5,4-c]pyridine-3-ol]
Tmax ± S.E.M. [1, 3]: 43 min | Cmax ± S.E.M. [1, 4]: 294 ± 39.4 ng/mL | Cmax [1, 4]: 273 ± 26.7 ng/mL | Tmax [1, 4]: 16 min | Cmax ± S.E.M. [1, 5]: 1854 ± 509.4 ng/mL | Cmax [1, 5]: 2060 ± 153 ng/mL | Tmax [1, 5]: 20 min | Tmax [1, 3]: 63 min | AUC increase compared to the control group ([1]; PO gaboxadol 0.5 mg/kg with 5-HTP 200 mg/kg vs without): 540% | AUC increase compared to the control group ([1]; PO gaboxadol 5.0 mg/kg with 5-HTP 200 mg/kg vs without): 330% | gaboxadol elimination rate constant when 5-HTP was present, relative to control ([1]; PO gaboxadol, 5-HTP 200 mg/kg): about 25% | AUC-dose-linearity: AUC of group J relative to group G ([1]; in vivo, 5 mg/kg): ~10 times | Ke ± S.E.M. ([1]; treatment G, PO gaboxadol 0.5 mg/kg, no 5-HTP): 0.0164 ± 0.0021 min⁻¹ | Ke ± S.E.M. ([1]; treatment H, PO gaboxadol 0.5 mg/kg, 5-HTP 200.0 mg/kg 30 min before): 0.0038 ± 0.0004 min⁻¹ | Ke ± S.E.M. ([1]; treatment I, PO gaboxadol 5.0 mg/kg, no 5-HTP): 0.0199 ± 0.0017 min⁻¹ | Ke ± S.E.M. ([1]; treatment J, PO gaboxadol 5.0 mg/kg, 5-HTP 200.0 mg/kg 30 min before): 0.0058 ± 0.0008 min⁻¹ | Cmax ± S.E.M. [2, 6]: 4109 ± 302.6 ng/mL | T1/2 [2, 6]: 44 min | Tmax [2, 6]: 5 min | Tmax ± S.E.M. [2, 6]: 5 ± 0.0 min | Cmax ([2]; male, Sprague-Dawley, in vivo, iv, 2.5 mg/kg, Cmax ± S.E.M.): 2850 ± 312 ng/mL | half-life ([2]; male, Sprague-Dawley, in vivo, iv, 2.5 mg/kg, T1/2): 26 min | AUC-dose-linearity: AUC of group G relative to group K ([2]; in vivo): five times | AUC of group K relative to group L ([2]; in vivo, iv, 2.5 mg/kg): ~3 times | Ke ± S.E.M. ([2]; treatment K, no 5-HTP): 0.0266 ± 0.0008 min⁻¹ | Ke ± S.E.M. ([2]; treatment L, 5-HTP 100 mg/kg by oral gavage 30 min prior): 0.0181 ± 0.0030 min⁻¹
